The test system of this test is Pityrosporum ovale. Kind of test: agar surface coating test (ASCT) against Pityrosporum ovale, in shampoo. The class given is cell-based. The conditions noted are these: shampoo containing Octopirox compared with a shampoo without Octopirox. Here is the method:
Whatever the chosen test according to the invention, a culture of the selected germ was set up on Petri dishes under the same test conditions in parallel with a control solution composed in general of sterilised water or of a saline solution. After the period(s) of incubation considered according to the selected test, the surface area of the dish which was free of bacteria and/or fungi was measured for both the tested compound and the control solution. By calculating a surface ratio, a relative surface value, enabling the selection of the compounds with an antimicrobial activity of at least 80% in one of these tests of effectiveness, was defined. The following germs were used in these methods: Pityrosporum ovale, Staphylococcus aureus, Staphylococcus epidermidis, Escherichia coli, Pseudomonas aeruginosa, Candida albicans, Trichophyton mentagrophytes. […]
The tested product and the agar surface are again left in contact for 30 s under the same conditions as above, followed by the stage of rinsing and of 24-h incubation at ambient temperature, and the antimicrobial evolution is observed again after this second phase of the test. […] The microbicidal or microbiostatic action can be established after each phase of the test, and recorded. […]

The structures appear in SMILES notation.

For `Cc1cc(CC(C)CC(C)(C)C)n(O)c(=O)c1.NCCO` (stereo not shown) [Octopirox®, Piroctone olamine], the “reduction of growth of P. ovale” value was 60%.

The values above are taken from US6479456B1, “Antimicrobial perfume compositions” (Firmenich SA, priority 2000, dated 2002).
